The nature of the experiment: Binding affinity towards Opioid receptor delta 1 in guinea pig brain membranes using [3H]naltrindole as radioligand.
For `C=CCN1CCC23CCCC[C@H]2[C@H]1Cc1cc(O)ccc13` [17-allyl-(1R,9R,10R)-17-azatetracyclo[7.5.3.01,10.02,7]heptadeca-2(7),3,5-trien-5-ol], the affinity corresponds to a Ki of 4.1 nM.

Consider `N#CCCCN1CCC23CCCC[C@H]2[C@H]1Cc1cc(O)ccc13` [3-[5-hydroxy-(1R,9R,10R)-17-azatetracyclo[7.5.3.01,10.02,7]heptadeca-2(7),3,5-trien-17-yl]propyl cyanide], for which the inhibition constant (Ki) stood at 3.1 nM.

For the molecule `Oc1ccc2c(c1)C[C@@H]1[C@@H]3CCCCC23CCN1CCC(O)c1cccs1` (stereo partly specified) [MCL-122], the Ki came out at 110 nM.

`Oc1ccc2c(c1)C[C@@H]1[C@@H]3CCCCC23CCN1Cc1ccco1` [MCL-119] registered an inhibition constant Ki of 8.5 nM.

`Oc1ccc2c(c1)C[C@@H]1[C@@H]3CCCCC23CCN1Cc1ccccc1` [17-benzyl-(1R,9R,10R)-17-azatetracyclo[7.5.3.01,10.02,7]heptadeca-2(7),3,5-trien-5-ol] registered a Ki of 420 nM.

In turn, `Oc1ccc2c(c1)C[C@@H]1[C@@H]3CCCCC23CCN1CCC(O)c1ccccc1` (stereo partly specified) [MCL-121] returned a Ki of 130 nM.

`Oc1ccc2c(c1)C[C@@H]1[C@@H]3CCCCC23CCN1CC1CCCCC1` [17-(N-cyclohexylmethyl)-(1R,9R,10R)-17-azatetracyclo[7.5.3.01,10.02,7]heptadeca-2(7),3,5-trien-5-ol] yielded a Ki of 69 nM.

For the molecule `COCCN1CCC23CCCC[C@H]2[C@H]1Cc1cc(O)ccc13` [MCL-110], the Ki is 0.54 nM.

For `Oc1ccc2c(c1)C[C@@H]1[C@@H]3CCCCC23CCN1CCOc1ccccc1` [MCL-127], the inhibition constant Ki is 33 nM.

Consider `O=C(CCN1CCC23CCCC[C@H]2[C@H]1Cc1cc(O)ccc13)c1ccco1` [1-(2-furyl)-3-[5-hydroxy-(1R,9R,10R)-17-azatetracyclo[7.5.3.01,10.02,7]heptadeca-2(7),3,5-trien-17-yl]-1-propanone], for which the inhibitory constant (Ki) was determined as 42 nM.

For the molecule `Oc1ccc2c(c1)C[C@@H]1[C@@H]3CCCC[C@]23CCN1C/C=C/I`, the affinity corresponds to a Ki of 27 nM.

Regarding `Oc1ccc2c(c1)C[C@@H]1[C@@H]3CCCCC23CCN1CC1CCCC1` [17-cyclopentylmethyl-17-azatetracyclo[7.5.3.01,10.02,7]heptadeca-2(7),3,5-trien-5-ol], the Ki was 6.9 nM.

In turn, `N#CCCN1CCC23CCCC[C@H]2[C@H]1Cc1cc(O)ccc13` [2-[5-hydroxy-(1R,9R,10R)-17-azatetracyclo[7.5.3.01,10.02,7]heptadeca-2(7),3,5-trien-17-yl]ethyl cyanide] registered an inhibition constant (Ki) of 2.6 nM.

The molecule `Oc1ccc2c(c1)C[C@@H]1[C@@H]3CCCCC23CCN1CCCF` [17-(3-fluoropropyl)-(1R,9R,10R)-17-azatetracyclo[7.5.3.01,10.02,7]heptadeca-2(7),3,5-trien-5-ol] gave a Ki of 0.85 nM.

As to `CCOCCN1CCC23CCCC[C@H]2[C@H]1Cc1cc(O)ccc13` [17-(2-ethoxyethyl)-(1R,9R,10R)-17-azatetracyclo[7.5.3.01,10.02,7]heptadeca-2(7),3,5-trien-5-ol], the affinity, expressed as Ki, was 5.6 nM.

`O=C(CCN1CCC23CCCC[C@H]2[C@H]1Cc1cc(O)ccc13)c1ccccc1` [3-[5-hydroxy-(1R,9R,10R)-17-azatetracyclo[7.5.3.01,10.02,7]heptadeca-2(7),3,5-trien-17-yl]-1-phenyl-1-propanone] came in with a Ki of 23 nM.

The molecule `Oc1ccc2c(c1)C[C@@H]1[C@@H]3CCCCC23CCN1CCC(O)c1ccco1` (stereo partly drawn) [1-(2-furyl)-3-[5-hydroxy-(1R,9R,10R)-17-azatetracyclo[7.5.3.01,10.02,7]heptadeca-2(7),3,5-trien-17-yl]-1-propanol] had an inhibition constant (Ki) of 29 nM.

Regarding `Oc1ccc2c(c1)C[C@@H]1[C@@H]3CCCCC23CCN1CCc1ccccc1` [17-phenethyl-(1R,9R,10R)-17-azatetracyclo[7.5.3.01,10.02,7]heptadeca-2(7),3,5-trien-5-ol], the inhibition constant (Ki) came out at 3.1 nM.

For the molecule `Oc1ccc2c(c1)C[C@@H]1[C@@H]3CCCCC23CCN1CCC(F)(F)F` [17-(3,3,3-trifluoropropyl)-(1R,9R,10R)-17-azatetracyclo[7.5.3.01,10.02,7]heptadeca-2(7),3,5-trien-5-ol], the affinity, expressed as Ki, was 27 nM.

`O=C(CCN1CCC23CCCC[C@H]2[C@H]1Cc1cc(O)ccc13)c1cccs1` [3-[5-hydroxy-(1R,9R,10R)-17-azatetracyclo[7.5.3.01,10.02,7]heptadeca-2(7),3,5-trien-17-yl]-1-(2-thienyl)-1-propanone] yielded a Ki of 10 nM.

The molecule `CC(C)CN1CCC23CCCC[C@H]2[C@H]1Cc1cc(O)ccc13` [MCL-108] had a Ki of 5.6 nM.

The values above are taken from BindingDB's records for doi:10.1016/s0960-894x(01)00543-1 (Harvard Medical School, 2001).
